Reference: PubChem BioAssay (NCI)
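Compound exposure: 48 hours, 5 concentrations, 96-well plates. At the TGI there is no net growth.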

Columns and labels:
Assay in all cases: DTP human tumour cell line panel, 48 h
[1] = tested on: NCI-H23 lung
[2] = tested on: BT-549 breast
[3] = tested on: LOX IMVI melanoma
[4] = tested on: NCI/ADR-RES ovarian
[5] = tested on: KM12 colon
[6] = tested on: SK-OV-3 ovarian
[7] = tested on: TK-10 renal
[8] = tested on: RPMI-8226 leukemia
[9] = tested on: ACHN renal
[10] = tested on: SN12C renal
[11] = tested on: OVCAR-8 ovarian
[12] = tested on: HT29 colon
[13] = tested on: SK-MEL-5 melanoma
[14] = tested on: 786-0 renal
[15] = tested on: M14 melanoma
[16] = tested on: MCF7 breast
[17] = tested on: SK-MEL-2 melanoma
[18] = tested on: HL-60(TB) leukemia

Compound | TGI [1] | TGI [2] | TGI [3] | TGI [4] | TGI [5] | TGI [6] | TGI [7] | TGI [8] | TGI [9] | TGI [10] | TGI [11] | TGI [12] | TGI [13] | TGI [14] | TGI [15] | TGI [16] | TGI [17] | TGI [18]
CC(=O)[C@@H]1C/C(=C\OCc2ccccc2)O[C@H]1C | > 100 µM | > 100 µM | > 100 µM | > 100 µM | > 100 µM | > 100 µM | > 100 µM | > 100 µM | > 100 µM | > 100 µM | > 100 µM | > 100 µM | > 100 µM | > 100 µM | > 100 µM |  |  | 
COc1ccc(P2(=S)Oc3ccccc3-c3ccccc3O2)cc1 | > 100 µM | > 100 µM | > 100 µM | > 100 µM | > 100 µM |  | > 100 µM |  | > 100 µM |  | > 40.6 µM |  | > 79.7 µM | > 100 µM | > 100 µM | > 40.4 µM | > 100 µM | 
O=S(CC1(O)CCCCC1)c1ccccc1 (configuration not stated) | > 100 µM | > 100 µM | > 100 µM | > 100 µM | > 100 µM | > 100 µM | > 100 µM | 2.32 µM | > 100 µM | > 100 µM | > 100 µM | > 100 µM | > 100 µM | > 100 µM | > 100 µM | > 100 µM | > 100 µM | > 100 µM
COc1cc2nc(-c3cccs3)nc(N3CCN(c4ccccc4C(F)(F)F)CC3)c2cc1OC | > 100 µM | > 100 µM | > 100 µM | > 100 µM | > 100 µM | > 100 µM | > 100 µM | > 100 µM | > 100 µM | > 100 µM | > 100 µM | > 100 µM | > 100 µM | > 100 µM | > 100 µM | > 100 µM | > 100 µM | > 100 µM
COc1cccc(/C=C2\CCCc3ccccc3C2=O)c1 | 32.6 µM | 39.3 µM | 38.9 µM | 53.3 µM | 38.8 µM | 79.3 µM | 82.6 µM | 64.1 µM | > 100 µM | 33 µM | 51.5 µM | 52.3 µM |  | 27.4 µM | 25.6 µM | 51.6 µM | 27.4 µM | 35 µM
O=C(Nc1ccccc1)c1cc2ccccc2c(N=Nc2ccc([N+](=O)[O-])cc2)c1O | > 100 µM | > 100 µM | > 100 µM | > 100 µM | > 100 µM | > 100 µM | > 100 µM | > 100 µM | > 100 µM | > 100 µM | > 100 µM | > 100 µM | > 100 µM | > 100 µM | > 100 µM |  | > 100 µM | > 100 µM
N#Cc1c(=O)c2ccccc2n2c1[nH]c1ccccc12 | > 100 µM | > 100 µM | > 100 µM | 70.4 µM | > 100 µM |  | > 100 µM | > 100 µM | > 100 µM | > 100 µM | > 100 µM | > 100 µM |  | > 100 µM | > 100 µM | > 100 µM | > 100 µM | > 100 µM
Nn1c(CCCCCCCCc2nnc(COc3ccc4ccccc4c3O)n2N)nnc1COc1ccc2ccccc2c1O | 41.6 µM | 69.5 µM |  | 60.7 µM | 49.4 µM | > 100 µM | > 100 µM | 99.2 µM | > 100 µM | > 100 µM |  | > 100 µM | 37.5 µM | > 100 µM | 78.4 µM | > 100 µM | > 100 µM | 
Oc1c(Cl)c(Cl)c(O)c(CCNc2ccc3ncccc3c2)c1Cl | 25.9 µM |  |  | 33.9 µM | 15.9 µM | 27.6 µM | 36.7 µM |  | 28 µM | 28.9 µM | 50.6 µM | 88.4 µM | 5.52 µM | 34.3 µM | 27.1 µM | 30.8 µM | 22.8 µM | > 100 µM
N#CC(C#N)=C/C=C(\Sc1c(Cl)c(Cl)nc(Cl)c1Cl)c1ccc(Cl)cc1 | 35.9 µM |  | 20.5 µM | 36.1 µM | 51.5 µM | 58.9 µM | 41.2 µM | > 100 µM | 37.8 µM | 42.4 µM | > 100 µM | > 100 µM | 27.7 µM | 27.5 µM | 38.9 µM | > 100 µM | > 100 µM | > 100 µM
CCC(C(=O)C(=O)C(CC)P1(=O)OC(C)(C)CN1C(C)(C)C)P1(=O)OC(C)(C)CN1C(C)(C)C (configuration not stated) | > 100 µM | > 100 µM | > 100 µM | > 100 µM | > 100 µM | > 100 µM | > 100 µM | > 100 µM | > 100 µM | > 100 µM | > 100 µM | > 100 µM | > 100 µM | > 100 µM | > 100 µM | > 100 µM | > 100 µM | > 100 µM
COc1ccc(C2SCC(=O)N2NC(=O)c2ccncc2)cc1F (configuration not stated) | > 100 µM |  | > 100 µM |  | > 100 µM | > 100 µM | > 100 µM | > 100 µM | > 100 µM | > 100 µM |  | > 100 µM | > 100 µM |  | > 100 µM |  | > 100 µM | > 100 µM
